Data reported in patent US8754113B2, “Oxadiazole derivative having endothelial lipase inhibitory activity” (Shionogi & Co., Ltd., priority 2009, dated 2014).
pIC50: −log10 of the molar value.

The molecules below were run against human endothelial lipase (EL) (Homo sapiens (Human), UniProt Q9Y5X9) (assay: Human endothelial lipase (EL) inhibitory activity using human HDL (NEFA release)). Details: human HDL 2 mg/ml substrate, 4-hour reaction at 37° C., NEFA readout; read-out: IC50 (50% inhibitory concentration), EL inhibitory activity.
Sequence of human endothelial lipase (EL) (Q9Y5X9 21-500): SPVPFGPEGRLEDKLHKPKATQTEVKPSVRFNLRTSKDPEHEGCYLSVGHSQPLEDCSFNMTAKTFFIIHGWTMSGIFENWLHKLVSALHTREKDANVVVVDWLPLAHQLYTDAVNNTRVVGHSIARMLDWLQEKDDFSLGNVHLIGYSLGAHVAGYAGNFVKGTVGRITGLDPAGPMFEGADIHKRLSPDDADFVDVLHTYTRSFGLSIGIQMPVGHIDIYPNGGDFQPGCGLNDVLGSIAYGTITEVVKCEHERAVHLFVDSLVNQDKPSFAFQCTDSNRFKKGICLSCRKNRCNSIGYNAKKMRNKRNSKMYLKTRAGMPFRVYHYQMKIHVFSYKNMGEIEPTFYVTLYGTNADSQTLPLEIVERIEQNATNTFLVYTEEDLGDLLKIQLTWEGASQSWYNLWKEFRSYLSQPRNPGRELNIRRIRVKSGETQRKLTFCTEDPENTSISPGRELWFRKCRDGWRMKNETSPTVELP
Format: biochemical
Procedure: Evaluation Method of Human Endothelial Lipase (EL) Inhibitory Activity Using Human High-Density Lipoprotein (HDL)
After the present compound dissolved in DMSO was added to become 0.5% DMSO to the reaction buffer consisting of 20 mM tris hydrochloric acid (pH7.4), bovine serum albumin (0.5%), calcium chloride (4 mM), sodium chloride (150 mM) and human HDL (2 mg/ml), the EL enzyme was added (total volume was 20 μl).
After 4-hour reaction at 37° C., non-esterified fatty acid (NEFA) generated from HDL by EL was measured with a commercially available assay kit and the amount of NEFA was used as an index of enzyme activity.

Row | Compound | pIC50
1 | Cc1ccc(-c2ccc3nc(Cc4nnc(CC(=O)NC5(C#N)CC5)o4)sc3c2F)s1 [Compound A-9] | 7.96
2 | N#CC1(NC(=O)Cc2nnc(Cc3nc4cnc(-c5ccccc5)cc4s3)o2)CC1 [Compound A-10] | 8.10
3 | N#CC1(NC(=O)Cc2nnc(Cc3nc4ccc(-c5ccc(Cl)cc5)c(F)c4s3)o2)CC1 [Compound A-13] | 7.66
4 | Cc1ccc(-c2ccc3nc(Cc4nnc(CC(=O)NC5(C#N)CC5)o4)sc3n2)s1 [Compound A-14] | 6.80
5 | N#CC1(NC(=O)Cc2nnc(Cc3nc4ccc(-c5ccccc5)c(Cl)c4s3)o2)CC1 [Compound A-17] | 7.39
6 | Cn1cc(-c2ccc3nc(Cc4nnc(CC(=O)NC5(C#N)CC5)o4)sc3n2)cn1 [Compound A-19] | 6.96
7 | Cn1cc(-c2ccc3nc(Cc4nnc(CC(=O)NC5(C#N)CC5)o4)sc3c2Cl)cn1 [Compound A-21] | 7.19
8 | COc1cc(-c2cnn(C)c2)cc2sc(Cc3nnc(CC(=O)NC4(C#N)CC4)o3)nc12 [Compound A-25] | 7.38
9 | O=C(O)Cc1nnc(Cc2nc3ccc(-c4ccccc4)cc3s2)o1 [Compound I-1-2] | 6.92
10 | N#CCNC(=O)Cc1nnc(Cc2nc3ccc(-c4ccccc4)cc3s2)o1 [Compound I-1-3] | 7.59
11 | O=C(NCCc1nnc(Cc2nc3ccc(-c4ccccc4)cc3s2)o1)C1CC1 [Compound I-1-7] | 7.72
12 | O=C(O)CCc1nnc(Cc2nc3ccc(-c4ccccc4)cc3s2)o1 [Compound I-1-9] | 6.59
13 | CS(=O)(=O)NCc1nnc(Cc2nc3ccc(-c4ccccc4)cc3s2)o1 [Compound I-1-23] | 7.14
14 | N#CCCc1nnc(Cc2nc3ccc(-c4ccccc4)cc3s2)o1 [Compound I-1-27] | 7.07
15 | O=C(Cc1nnc(Cc2nc3ccc(-c4ccccc4)cc3s2)o1)NCCO [Compound I-1-31] | 7.08
16 | N#CCNC(=O)Cc1nnc(Cc2nc3cc(-c4ccccc4)ccc3o2)o1 [Compound I-1-43] | 6.41
17 | O=C(Cc1nnc(Cc2nc3ccc(-c4ccccc4)cc3s2)o1)N1CCOCC1 [Compound I-1-82] | 7.28
18 | O=C(Cc1nnc(Cc2nc3ccc(-c4ccccc4)cc3s2)o1)Nc1ccccc1 [Compound I-1-83] | 8.30
19 | NS(=O)(=O)NCc1nnc(Cc2nc3ccc(-c4ccccc4)cc3s2)o1 [Compound I-1-85] | 8.22
20 | N#CCNC(=O)Cc1nnc(Cc2nc3c(Br)cccc3s2)o1 [Compound I-2-196] | 7.44
21 | N#CCNC(=O)Cc1nnc(Cc2nc3c(-c4ccccc4)cccc3s2)o1 [Compound I-2-197] | 7.92

Row | Compound | pIC50
22 | Cn1ccc(-c2ccc3nc(Cc4nnc(CC(=O)NC5(C#N)CC5)o4)sc3c2)n1 [Compound I-2-198] | 7.82
23 | N#CCNC(=O)Cc1nnc(Cc2ccc3cc(-c4ccccc4)ccc3n2)o1 [Compound I-2-204] | 6.72
24 | N#CCNC(=O)Cc1nnc(Cc2cnc3cc(-c4ccccc4)ccc3n2)o1 [Compound I-2-215] | 5.60
25 | N#CCNC(=O)Cc1nnc(Cc2ccc(-c3ccccc3)cn2)o1 [Compound I-2-216] | 4.64
26 | N#CC1(NC(=O)Cc2nnc(Cc3nc4ccc(-c5ccccn5)cc4s3)o2)CC1 [Compound I-3-1] | 7.96
27 | Cn1cc(-c2ccc3sc(Cc4nnc(CC(=O)NC5(C#N)CC5)o4)nc3c2)cn1 [Compound I-3-4] | 8.40
28 | O=C(Cc1nnc(Cc2nc3ccc(-c4ccc(F)cc4)cc3s2)o1)NC1(CO)CC1 [Compound I-3-6] | 7.28
29 | N#CC1(NC(=O)Cc2nnc(Cc3nc4c(-c5ccccc5)cccc4s3)o2)CC1 [Compound I-3-11] | 8.05
30 | O=C(Cc1nnc(Cc2nc3c(-c4ccccc4)cccc3s2)o1)NC1(CO)CC1 [Compound I-3-12] | 7.11
31 | N#CCNC(=O)Cc1nnc(C(F)(F)c2nc3ccc(-c4ccccc4)cc3s2)o1 [Compound I-3-21] | 6.60
32 | O=C(Cc1nnc(Cc2nc3ccc(-c4ccccc4)cc3s2)o1)N1CC(O)C1 [Compound I-3-23] | 6.40
33 | O=C(Cc1nnc(Cc2nc3ccc(-c4ccccc4)cc3s2)o1)NC1COC1 [Compound I-3-30] | 7.34
34 | CC(C#N)NC(=O)Cc1nnc(Cc2nc3ccc(-c4ccccc4)cc3s2)o1 (stereo not drawn) [Compound I-3-37] | 8.70
35 | N#CC1(NC(=O)Cc2nnc(Cc3nc4ccc(Cc5ccc(F)cc5)cc4s3)o2)CC1 [Compound I-3-41] | 7.85
36 | N#CC1(NC(=O)Cc2nnc(Cc3nc4ccc(C5=CCOCC5)cc4s3)o2)CC1 [Compound I-3-48] | 8.10
37 | N#CC1(NC(=O)Cc2nnc(Cc3nc4ccc(-c5ccc(Cl)s5)cc4s3)o2)CC1 [Compound I-3-56] | 8.40
38 | N#CC1(NC(=O)Cc2nnc(Cc3nc4ccc(-c5cc6ccccc6s5)cc4s3)o2)CC1 [Compound I-3-93] | 7.55
39 | N#CC1(NC(=O)Cc2nnc(Cc3nc4ccc(-c5ncc(F)cn5)cc4s3)o2)CC1 [Compound I-3-112] | 7.36
40 | N#CC1(NC(=O)Cc2nnc(Cc3nc4ccc(-c5ncccn5)cc4s3)o2)CC1 [Compound I-3-145] | 7.16
41 | N#CC1(NC(=O)Cc2nnc(Cc3nc4ccc(-c5ccc(Cl)cn5)cc4s3)o2)CC1 [Compound I-3-146] | 7.57
42 | N#CC1(NC(=O)Cc2nnc(Cc3nc4ccc(-c5ccc(F)s5)cc4s3)o2)CC1 [Compound I-3-163] | 8.05
